Experimental data from patent publication US8354422B2, “Pyrimidine inhibitors of kinase activity” (Abbott Laboratories Inc., priority 2009, dated 2013).

These molecules were tested against T1, C-terminal GST-tagged, recombinant, human IGF-1R, amino acids 954-1367 (Homo sapiens, UniProt P08069) (assay: IGF-1R kinase activity, homogenous time-resolved fluorescence (HTRF) in vitro kinase assay). Settings: IGF-1R kinase HTRF assay, ATP 50 μM, biotinylated peptide substrate 0.5 μM, 60 minutes at room temperature.
T1 construct: human IGF-1R, amino acids 954-1367 expressed by baculovirus in Sf21 cells; GST (C); purchased Cell Signaling Technology; host or cells: baculovirus in Sf21 cells
T1 sequence (P08069 954-1367): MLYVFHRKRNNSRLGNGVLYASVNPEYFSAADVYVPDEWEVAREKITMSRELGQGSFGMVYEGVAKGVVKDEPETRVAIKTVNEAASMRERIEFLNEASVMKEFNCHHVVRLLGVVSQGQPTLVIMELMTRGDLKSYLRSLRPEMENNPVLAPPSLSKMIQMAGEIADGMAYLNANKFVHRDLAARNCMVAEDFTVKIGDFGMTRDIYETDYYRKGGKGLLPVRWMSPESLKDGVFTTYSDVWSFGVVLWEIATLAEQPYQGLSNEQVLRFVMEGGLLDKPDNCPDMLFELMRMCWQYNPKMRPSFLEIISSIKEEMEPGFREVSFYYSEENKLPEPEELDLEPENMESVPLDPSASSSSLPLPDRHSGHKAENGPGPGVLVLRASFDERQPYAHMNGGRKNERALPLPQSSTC
Type: biochemical
Description: IGF-1R kinase activity was assayed by a homogenous time-resolved fluorescence (HTRF) in vitro kinase assay (Mathis, G., HTRF(R) Technology. J Biomol Screen, 1999. 4(6): p. 309-314). Specifically, 10 μL C-terminal GST-tagged, recombinant, human IGF-1R, amino acids 954-1367 expressed by baculovirus in Sf21 cells (Cell Singaling Technology) was mixed with 10 μL inhibitor (various concentrations, 2% final DMSO) and 10 μL of ATP (50 μM final concentration) in reaction buffer (50 mM HEPES, pH […], 2 mM MnCl2, 0.1% BSA and 1 mM DTT, 40 μL final volume). The reaction was initiated by addition of 10 μL of biotinylated peptide substrate (Biotin-Ahx-[…], 0.5 μM final concentration) in a black 384-well plate (Packard). After 60 minutes incubation at room temperature, the reaction was quenched by addition of 60 μL stop/revelation buffer to give 30 mM EDTA, 1 μg/mL streptavidin-APC (Prozyme), 50 ng/mL anti-phosphotyrosine mAb PT66-K Europium Cryptate, 30 mM HEPES, pH 7.5, 120 mM KF, 0.005% Tween-20, 0.05% BSA). The quenched reaction was allowed to stand at room temperature for 1 hour and then read in a time-resolved fluorescence detector (Envision, Perkin Elmer) at 615 nm and 665 nm simultaneously. The ratio between the signal of 615 nm and 665 nm was used in the calculation of the IC50.

Row | SMILES | IC50 [nM]
1 | COc1ccc(N2CCS(=O)(=O)CC2)cc1Nc1nccc(-c2c(-c3ccc(OCc4ccccc4)c(OC)c3)nc3ccccn23)n1 [Example 74, 4-{2-[4-(benzyloxy)-3-methoxyphenyl]imidazo[1,2-a]pyridin-3-yl}-N-[5-(1,1-dioxidothiomorpholin-4-yl)-2-methoxyphenyl]pyrimidin-2-amine] | < 25
2 | COc1ccc(N2CCSCC2)cc1Nc1nccc(-c2c(-c3ccc(OCc4ccccc4)c(OC)c3)nc3ccccn23)n1 [Example 73, 4-{2-[4-(benzyloxy)-3-methoxyphenyl]imidazo[1,2-a]pyridin-3-yl}-N-(2-methoxy-5-thiomorpholin-4-ylphenyl)pyrimidin-2-amine] | 101 to 500
3 | COc1ccc(N2CCOCC2)cc1Nc1nccc(-c2c(-c3ccc(OCc4ccccc4)c(OC)c3)nc3ccccn23)n1 [Example 52, 4-{2-[4-(benzyloxy)-3-methoxyphenyl]imidazo[1,2-a]pyridin-3-yl}-N-(2-methoxy-5-morpholin-4-ylphenyl)pyrimidin-2-amine] | 101 to 500
4 | Cc1cc(Nc2nccc(-c3c(-c4ccc(OCc5ccccc5)cc4)nc4ccccn34)n2)n[nH]1 [Example 14, 4-{2-[4-(benzyloxy)phenyl]imidazo[1,2-a]pyridin-3-yl}-N-(5-methyl-1H-pyrazol-3-yl)pyrimidin-2-amine] | > 1000
5 | CN(C)CCc1cccc(Nc2nccc(-c3c(-c4ccc(OCc5ccccc5)c(F)c4)nc4ccccn34)n2)c1 [Example 9, 4-{2-[4-(benzyloxy)-3-fluorophenyl]imidazo[1,2-a]pyridin-3-yl}-N-{3-[2-(dimethylamino)ethyl]phenyl}pyrimidin-2-amine] | 25 to 100
6 | COc1cc(-c2nc3ccccn3c2-c2ccnc(Nc3ccc(N4CCC(N(C)C)CC4)cc3)n2)ccc1OCc1ccccc1 [Example 36, 4-{2-[4-(benzyloxy)-3-methoxyphenyl]imidazo[1,2-a]pyridin-3-yl}-N-{4-[4-(dimethylamino)piperidin-1-yl]phenyl}pyrimidin-2-amine] | < 25
7 | COc1ccc(NC(=O)CN(C)C)cc1Nc1nccc(-c2c(-c3ccc(OCc4ccccc4)cc3)nc3ccccn23)n1 [Example 72, N^1-{3-[(4-{2-[4-(benzyloxy)phenyl]imidazo[1,2-a]pyridin-3-yl}pyrimidin-2-yl)amino]-4-methoxyphenyl}-N^2,N^2-dimethylglycinamide] | < 25
8 | COc1cc(-c2nc3sccn3c2-c2ccnc(Nc3ccc(CN(C)C)cc3)n2)ccc1OCc1ccccc1 [Example 83] | 25 to 100
9 | CN(C)CCc1cccc(Nc2nccc(-c3c(-c4ccc(OCc5ccccc5)cc4)nc4ccccn34)n2)c1 [Example 1, 4-{2-[4-(benzyloxy)phenyl]imidazo[1,2-a]pyridin-3-yl}-N-{3-[2-(dimethylamino)ethyl]phenyl}pyrimidin-2-amine] | < 25
10 | CN(C)S(=O)(=O)c1cccc(Nc2nccc(-c3c(-c4ccc(OCc5ccccc5)cc4)nc4ccccn34)n2)c1 [Example 5, 3-[(4-{2-[4-(benzyloxy)phenyl]imidazo[1,2-a]pyridin-3-yl}pyrimidin-2-yl)amino]-N,N-dimethylbenzenesulfonamide] | > 1000
11 | COc1ccc(S(C)(=O)=O)cc1Nc1nccc(-c2c(-c3ccc(OCc4ccccc4)cc3)nc3ccccn23)n1 [Example 35, 4-{2-[4-(benzyloxy)phenyl]imidazo[1,2-a]pyridin-3-yl}-N-[2-methoxy-5-(methylsulfonyl)phenyl]pyrimidin-2-amine] | 101 to 500
12 | COc1cc(N2CCC(N(C)C)CC2)ccc1Nc1nccc(-c2c(-c3ccc(OCc4ccccc4)c(OC)c3)nc3ccccn23)n1 [Example 33, 4-{2-[4-(benzyloxy)-3-methoxyphenyl]imidazo[1,2-a]pyridin-3-yl}-N-{4-[4-(dimethylamino)piperidin-1-yl]-2-methoxyphenyl}pyrimidin-2-amine] | 25 to 100
13 | CN(C)CCc1cccc(Nc2nccc(-c3c(-c4ccc(OCc5ccc(F)cc5)cc4)nc4ccccn34)n2)c1 [Example 20, N-{3-[2-(dimethylamino)ethyl]phenyl}-4-(2-{4-[(4-fluorobenzyl)oxy]phenyl}imidazo[1,2-a]pyridin-3-yl)pyrimidin-2-amine] | 101 to 500
14 | COc1ccccc1Nc1nccc(-c2c(-c3ccc(OCc4ccccc4)cc3)nc3ccccn23)n1 [Example 3, 4-{2-[4-(benzyloxy)phenyl]imidazo[1,2-a]pyridin-3-yl}-N-(2-methoxyphenyl)pyrimidin-2-amine] | > 1000
15 | COc1cc(-c2nc3ccccn3c2-c2ccnc(Nc3ccc(NC(=O)CN(C)C)cc3)n2)ccc1OCc1ccccc1 [Example 65, N^1-{4-[(4-{2-[4-(benzyloxy)-3-methoxyphenyl]imidazo[1,2-a]pyridin-3-yl}pyrimidin-2-yl)amino]phenyl}-N^2,N^2-dimethylglycinamide] | 25 to 100
16 | CN(C)CCc1cccc(Nc2nccc(-c3c(-c4ccc(OCc5ccccc5)cc4F)nc4ccccn34)n2)c1 [Example 8, 4-{2-[4-(benzyloxy)-2-fluorophenyl]imidazo[1,2-a]pyridin-3-yl}-N-{3-[2-(dimethylamino)ethyl]phenyl}pyrimidin-2-amine] | 25 to 100
17 | COc1cc(-c2nc3ccccn3c2-c2ccnc(Nc3cnn(CCN(C)C)c3)n2)ccc1OCc1ccccc1 [Example 43, 4-{2-[4-(benzyloxy)-3-methoxyphenyl]imidazo[1,2-a]pyridin-3-yl}-N-{1-[2-(dimethylamino)ethyl]-1H-pyrazol-4-yl}pyrimidin-2-amine] | 101 to 500
18 | COc1cc(-c2nc3sccn3c2-c2ccnc(Nc3cccc(CCN(C)C)c3)n2)ccc1OCc1ccccc1 [Example 85, 4-{6-[4-(benzyloxy)-3-methoxyphenyl]imidazo[2,1-b][1,3]thiazol-5-yl}-N-{3-[2-(dimethylamino)ethyl]phenyl}pyrimidin-2-amine] | 25 to 100
19 | COc1cc(N2CCC(N(C)C)CC2)ccc1Nc1nccc(-c2c(-c3ccc(OCc4ccccc4)c(OC)c3)nc3sccn23)n1 [Example 84, 4-{6-[4-(benzyloxy)-3-methoxyphenyl]imidazo[2,1-b][1,3]thiazol-5-yl}-N-{4-[4-(dimethylamino)piperidin-1-yl]-2-methoxyphenyl}pyrimidin-2-amine] | < 25
20 | COc1cc(NCC(C)(C)O)ccc1Nc1nccc(-c2c(-c3ccc(OCc4ccccc4)c(OC)c3)nc3ccccn23)n1 [Example 45, 1-({4-[(4-{2-[4-(benzyloxy)-3-methoxyphenyl]imidazo[1,2-a]pyridin-3-yl}pyrimidin-2-yl)amino]-3-methoxyphenyl}amino)-2-methylpropan-2-ol] | 101 to 500
21 | CC(Oc1ccc(-c2nc3ccccn3c2-c2ccnc(Nc3cccc(CCN(C)C)c3)n2)cc1)c1ccccc1 (stereo not drawn) [Example 21, N-{3-[2-(dimethylamino)ethyl]phenyl}-4-{2-[4-(1-phenylethoxy)phenyl]imidazo[1,2-a]pyridin-3-yl}pyrimidin-2-amine] | 101 to 500
22 | COc1cc(-c2nc3ccccn3c2-c2ccnc(Nc3ccc(N4CCS(=O)(=O)CC4)cc3)n2)ccc1OCc1ccccc1 [Example 32, 4-{2-[4-(benzyloxy)-3-methoxyphenyl]imidazo[1,2-a]pyridin-3-yl}-N-[4-(1,1-dioxidothiomorpholin-4-yl)phenyl]pyrimidin-2-amine] | 101 to 500
23 | CCc1cc(-c2nc3ccccn3c2-c2ccnc(Nc3cccc(CCN(C)C)c3)n2)ccc1OCc1ccccc1 [Example 50, 4-{2-[4-(benzyloxy)-3-ethylphenyl]imidazo[1,2-a]pyridin-3-yl}-N-{3-[2-(dimethylamino)ethyl]phenyl}pyrimidin-2-amine] | > 1000
24 | COc1cc(N2CCS(=O)(=O)CC2)ccc1Nc1nccc(-c2c(-c3ccc(OCc4ccccc4)c(OC)c3)nc3ccccn23)n1 [Example 63, 4-{2-[4-(benzyloxy)-3-methoxyphenyl]imidazo[1,2-a]pyridin-3-yl}-N-[4-(1,1-dioxidothiomorpholin-4-yl)-2-methoxyphenyl]pyrimidin-2-amine] | 25 to 100
25 | COc1cc(-c2nc3ccccn3c2-c2ccnc(Nc3cccc(NC(=O)CN(C)C)c3)n2)ccc1OCc1ccccc1 [Example 66, N^1-{3-[(4-{2-[4-(benzyloxy)-3-methoxyphenyl]imidazo[1,2-a]pyridin-3-yl}pyrimidin-2-yl)amino]phenyl}-N^2,N^2-dimethylglycinamide] | 25 to 100
26 | CN(C)CCc1cccc(Nc2nccc(-c3c(-c4ccc(OCc5ccccc5)c(Cl)c4)nc4ccccn34)n2)c1 [Example 11, 4-{2-[4-(benzyloxy)-3-chlorophenyl]imidazo[1,2-a]pyridin-3-yl}-N-{3-[2-(dimethylamino)ethyl]phenyl}pyrimidin-2-amine] | 101 to 500
27 | COc1cc(-c2nc3ccccn3c2-c2ccnc(Nc3cccc(CCN4CCCC4)c3)n2)ccc1OCc1ccccc1 [Example 24, 4-{2-[4-(benzyloxy)-3-methoxyphenyl]imidazo[1,2-a]pyridin-3-yl}-N-[3-(2-pyrrolidin-1-ylethyl)phenyl]pyrimidin-2-amine] | 25 to 100
